# From US9855245B2, “Methods for improving lipid profiles using atrasentan” (AbbVie Inc., priority 2013, dated 2018)
# How the values were obtained:
# [1] = system: subjects with type 2 diabetes and nephropathy; test: Example 3: Phase 2b randomized, double-blind, placebo-controlled 8-week study with thoracic bioimpedance; assay type: in vivo, human; conditions: for Death / Fatal adverse event: N = 16; for UACR Change from Baseline LS Mean (SE) / UACR Geometric Mean Change (Percent): baseline to final on-treatment measurement
# Description: This study also included measurement of thoracic bioimpedance to assess the potential for thoracic fluid retention with atrasentan.
# An equal percentage of subjects in all 3 groups experienced an adverse event (81.3%). […] (Table 17).
# A mean decrease of 4 ohms in thoracic bioimpedance, as measured by the ZOE® Fluid Status Monitor, is considered clinically indicative of thoracic fluid overload. Mean thoracic bioimpedance fluctuated in all treatment groups over time, with greater mean changes in the 2 atrasentan groups than in the placebo group.
# ETAR = molecular target: T1, ETAR (Homo sapiens, UniProt P25101); test: Example 6: receptor occupancy data overlaid on edema risk
# T1 construct: Instead it rises proportionally across the ETAR receptor occupancy curve
# T1 sequence (P25101 21-427): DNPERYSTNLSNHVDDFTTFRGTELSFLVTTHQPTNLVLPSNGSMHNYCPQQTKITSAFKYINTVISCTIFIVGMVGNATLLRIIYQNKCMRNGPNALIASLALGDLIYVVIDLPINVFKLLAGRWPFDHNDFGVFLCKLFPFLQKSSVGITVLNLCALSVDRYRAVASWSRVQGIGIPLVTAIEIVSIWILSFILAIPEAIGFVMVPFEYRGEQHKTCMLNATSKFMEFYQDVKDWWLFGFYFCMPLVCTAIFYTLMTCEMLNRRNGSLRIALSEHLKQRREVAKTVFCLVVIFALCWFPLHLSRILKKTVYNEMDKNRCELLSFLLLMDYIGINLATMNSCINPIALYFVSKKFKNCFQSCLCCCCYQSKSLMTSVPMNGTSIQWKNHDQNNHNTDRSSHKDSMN
# [2] = system: subjects with type 2 diabetes and nephropathy; test: Example 2: Phase 2b randomized, double-blind, placebo-controlled 12-week study conducted in Japan
# Description: The primary efficacy endpoint in this study was the change from Baseline to Week 12 in log-transformed UACR with the primary analysis conducted using MMRM with fixed effects for treatment, visit, and treatment-by-visit interaction, with baseline measurement and baseline-by-visit interaction as covariates.
# All safety analyses were performed on treatment-emergent adverse events only. Treatment-emergent adverse events were defined as those that first occurred or worsened on or after the date of first dose of study drug through 30 days after the last dose of study drug.
smiles,measurement,setting,value
"CCCCN(CCCC)C(=O)CN1C[C@H](c2ccc3c(c2)OCO3)[C@@H](C(=O)O)[C@@H]1c1ccc(OC)cc1 [Atrasentan, (2R,3R,4S)-4-(1,3-benzodioxol-5-yl)-1-[2-(dibutylamino)-2-oxoethyl]-2-(4-methoxyphenyl)pyrrolidine-3-carboxylic acid]",Death,[1]; 0.5 mg,0 N (%) of Subjects
same,Fatal adverse event,[1]; 0.5 mg,0 N (%) of Subjects
same,"Cholesterol, Difference (95% CI) from placebo",[1]; 0.5 mg/day,"3.6 (−19.26, 26.46) mg/dL"
same,"Cholesterol, Final On-Treatment Visit Mean (SD)",[1]; 0.5 mg/day,155.1 (40.36) mg/dL
same,"Cholesterol, LS Mean Change from Baseline (SE)",[1]; 0.5 mg/day,−1.5 (7.05) mg/dL
same,"HDL-C, Difference (95% CI) from placebo",[1]; 0.5 mg/day,"1.9 (−3.54, 7.28) mg/dL"
same,"HDL-C, Final On-Treatment Visit Mean (SD)",[1]; 0.5 mg/day,41.1 (9.92) mg/dL
same,"HDL-C, LS Mean Change from Baseline (SE)",[1]; 0.5 mg/day,−0.5 (1.67) mg/dL
same,Had ≧30% Reduction in UACR and No Edema (no moderate or severe adverse event of edema),[1]; 0.5 mg/day,31.3%
same,"LDL-C, Difference (95% CI) from placebo",[1]; 0.5 mg/day,"3.1 (−19.49, 25.75) mg/dL"
same,"LDL-C, Final On-Treatment Visit Mean (SD)",[1]; 0.5 mg/day,68.1 (23.33) mg/dL
same,"LDL-C, LS Mean Change from Baseline (SE)",[1]; 0.5 mg/day,−0.3 (6.67) mg/dL
same,Percentage of Subjects with ≧30% Reduction in Log-Transformed UACR from Baseline to Final Measurement,[1]; 0.5 mg/day,50.0%
same,Percentage of Subjects with ≧40% Reduction in Log-Transformed UACR from Baseline to Final Measurement,[1]; 0.5 mg/day,31.3%
same,Percentage of Subjects with ≧50% Reduction in Log-Transformed UACR from Baseline to Final Measurement,[1]; 0.5 mg/day,18.8%
same,"Triglycerides, Difference (95% CI) from placebo",[1]; 0.5 mg/day,"−29.8 (−14.09, 44.49) mg/dL"
same,"Triglycerides, Final On-Treatment Visit Mean (SD)",[1]; 0.5 mg/day,206.1 (71.42) mg/dL
same,"Triglycerides, LS Mean Change from Baseline (SE)",[1]; 0.5 mg/day,−2.3 (22.89) mg/dL
same,"geometric mean reduction in UACR, baseline to final on-treatment measurement",[1]; 0.5 mg/day,27.7%
same,UACR Between-group Comparison Difference (90% CI),[1]; 0.5 mg/day vs placebo,"0.04 (−0.28, 0.36)"
same,UACR Change from Baseline LS Mean (SE),[1]; 0.5 mg/day,−0.32 log mg/g creatinine
same,UACR Geometric Mean Change (Percent),[1]; 0.5 mg/day,−27.69%
same,Death,[1]; 1.25 mg,0 N (%) of Subjects
same,Fatal adverse event,[1]; 1.25 mg,0 N (%) of Subjects
same,"Cholesterol, Difference (95% CI) from placebo",[1]; 1.25 mg/day,"−14.7 (−37.99, 8.54) mg/dL"
same,"Cholesterol, Final On-Treatment Visit Mean (SD)",[1]; 1.25 mg/day,169.4 (46.02) mg/dL
same,"Cholesterol, LS Mean Change from Baseline (SE)",[1]; 1.25 mg/day,−19.9 (7.30) mg/dL
same,"HDL-C, Difference (95% CI) from placebo",[1]; 1.25 mg/day,"−1.4 (−6.89, 4.13) mg/dL"
same,"HDL-C, Final On-Treatment Visit Mean (SD)",[1]; 1.25 mg/day,53.9 (22.23) mg/dL
same,"HDL-C, LS Mean Change from Baseline (SE)",[1]; 1.25 mg/day,−3.7 (1.73) mg/dL
same,Had ≧30% Reduction in UACR and No Edema (no moderate or severe adverse event of edema),[1]; 1.25 mg/day,28.6%
same,"LDL-C, Difference (95% CI) from placebo",[1]; 1.25 mg/day,"−9.8 (−33.30, 13.64) mg/dL"
same,"LDL-C, Final On-Treatment Visit Mean (SD)",[1]; 1.25 mg/day,78.9 (37.01) mg/dL
same,"LDL-C, LS Mean Change from Baseline (SE)",[1]; 1.25 mg/day,−13.3 (7.21) mg/dL
same,Percentage of Subjects with ≧30% Reduction in Log-Transformed UACR from Baseline to Final Measurement,[1]; 1.25 mg/day,42.9%
same,Percentage of Subjects with ≧40% Reduction in Log-Transformed UACR from Baseline to Final Measurement,[1]; 1.25 mg/day,42.9%
same,Percentage of Subjects with ≧50% Reduction in Log-Transformed UACR from Baseline to Final Measurement,[1]; 1.25 mg/day,35.7%
same,"Triglycerides, Difference (95% CI) from placebo",[1]; 1.25 mg/day,"−31.0 (−108.09, 46.10) mg/dL"
same,"Triglycerides, Final On-Treatment Visit Mean (SD)",[1]; 1.25 mg/day,187.1 (115.90) mg/dL
same,"Triglycerides, LS Mean Change from Baseline (SE)",[1]; 1.25 mg/day,−3.5 (24.59) mg/dL
same,"geometric mean reduction in UACR, baseline to final on-treatment measurement",[1]; 1.25 mg/day,37.4%
same,"total cholesterol, LDL-C, and triglycerides compared with placebo",[1]; 1.25 mg/day,greater mean decreases
same,UACR Between-group Comparison Difference (90% CI),[1]; 1.25 mg/day vs placebo,"−0.11 (−0.43, 0.21)"
same,UACR Change from Baseline LS Mean (SE),[1]; 1.25 mg/day,−0.47 log mg/g creatinine
same,UACR Geometric Mean Change (Percent),[1]; 1.25 mg/day,−37.45%
same,Receptor Occupancy,ETAR; Dose 0.25 mg,25%
same,Receptor Occupancy,ETAR; Dose 0.75 mg,47%
same,Receptor Occupancy,ETAR; Dose 1.75 mg,67%
same,Any adverse event,"[2]; 0.75 mg, N = 19",17 (89.5) N (%) of Subjects
same,Any adverse event leading to discontinuation of study drug,"[2]; 0.75 mg, N = 19",1 (5.3) N (%) of Subjects
same,Death,"[2]; 0.75 mg, N = 19",0 N (%) of Subjects
same,Fatal adverse event,"[2]; 0.75 mg, N = 19",0 N (%) of Subjects
same,Possibly or probably drug-related adverse event,"[2]; 0.75 mg, N = 19",7 (36.8) N (%) of Subjects
same,Serious adverse event,"[2]; 0.75 mg, N = 19",3 (15.8) N (%) of Subjects
same,Severe adverse event,"[2]; 0.75 mg, N = 19",1 (5.3) N (%) of Subjects
same,"Cholesterol, Difference (95% CI) from placebo",[2]; 0.75 mg/day,"−26.1 (−42.77, −9.33) mg/dL"
same,"Cholesterol, Final On-Treatment Visit Mean (SD)",[2]; 0.75 mg/day,173.5 (30.52) mg/dL
same,"Cholesterol, LS Mean Change from Baseline (SE)",[2]; 0.75 mg/day,−28.0 (5.27) mg/dL
same,"HDL-C, Difference (95% CI) from placebo",[2]; 0.75 mg/day,"−1.0 (−6.89, 4.91) mg/dL"
same,"HDL-C, Final On-Treatment Visit Mean (SD)",[2]; 0.75 mg/day,48.8 (12.65) mg/dL
same,"HDL-C, LS Mean Change from Baseline (SE)",[2]; 0.75 mg/day,−2.8 (1.86) mg/dL
same,Had ≧30% Reduction in UACR and No Edema (no moderate or severe adverse event of edema),[2]; 0.75 mg/day,8 (42.1) Number (%) of Subjects
same,"Hemoglobin, Difference (95% CI) from placebo",[2]; 0.75 mg/day,"−1.22 (−1.863, −0.586) g/dL"
same,"Hemoglobin, Final On-Treatment Visit Mean (SD)",[2]; 0.75 mg/day,11.74 (1.963) g/dL
same,"LDL-C, Difference (95% CI) from placebo",[2]; 0.75 mg/day,"−19.4 (−33.56, −5.30) mg/dL"
same,"LDL-C, Final On-Treatment Visit Mean (SD)",[2]; 0.75 mg/day,94.4 (29.10) mg/dL
same,"LDL-C, LS Mean Change from Baseline (SE)",[2]; 0.75 mg/day,−18.6 (4.45) mg/dL
same,Percentage of Subjects with ≧30% Reduction in Log-Transformed UACR from Baseline to Final Measurement,[2]; 0.75 mg/day,52.6%
